Experimental data from publication PMC3154333, “Specificity of RSG-1.2 Peptide Binding to RRE-IIB RNA Element of HIV-1 over Rev Peptide Is Mainly Enthalpic in Origin” (PLoS ONE, 2011).
Where “and” joins values, the source holds several entries; their conditions need not be identical. Equal values may be shown once. Entries after “also recorded” stand apart in the source; their conditions may differ.

Tests used:
RRE-IIB RNA [1] = test: Isothermal titration calorimetry (ITC) of peptide binding to RRE-IIB; parameters: species or system HIV-1; settings: for N1 / N2: ITC stoichiometry; for N1 / ΔH1 (binding enthalpy ΔH) / TΔS1: first site; for N1 / N2 / ΔH1 (binding enthalpy ΔH) / Ka2 / TΔS2 / ΔH2 / TΔS1: two-site model; for N2 / Ka2 / TΔS2 / ΔH2: second (low affinity) site; for ΔH1 (binding enthalpy ΔH): 350 µM peptide into 10 µM RRE-IIB, corrected for heat of dilution, pH 7.5, 50 mM NaCl; for Ka1 / TΔS1: RSG-1.2 mutants; for Ka1: high affinity site, model for two set of binding sites, 10 mM sodium cacodylate, 0.1 mM EDTA, 50 mM NaCl, ± = SD of data from fitted curve; for TΔS1: derived from fits of ITC profiles
Protocol: (§1) Fluorescence labeled RNA having 2-Aminopurine (2-AP) at U72 position of RRE-IIB was obtained from Ocimum Biosolutions Ltd. Netherlands. All the stock solutions were prepared in Milli-Q water. Other reagents were commercially available and were of analytical grade quality and used without any further purification. All the experiments were performed using 10 mM sodium cacodylate buffer containing 0.1 mM EDTA and 50 mM NaCl at pH 7.5.
(§2) Isothermal titration calorimetry measurements were conducted at 25°C on a Microcal VP-ITC (Microcal, Inc.; Northampton MA). Titration of RRE-IIB with Rev as well as RSG-1.2 were done by injecting 4 µL aliquots of 350 µM peptide from a 250 µL rotating syringe (350 rpm) into an isothermal sample chamber containing 1.5 mL of 10 µM RRE-IIB solution. Each experiment of this type was accompanied by the corresponding control experiment in which 350 µM peptide were injected into a solution of buffer alone. The duration of each injection was 8 s and the delay between the injections was 300 s, the initial delay prior to the first injection was 200 s. Each injection generated a heat burst curve (microcalories/second vs. seconds) and the area under each curve was determined by integration [using origin version 7.0 software (Microcal, Inc.; Northampton, MA)] to obtain the measure of heat associated with that injection. The buffer corrected ITC profiles for the binding of Rev and RSG-1.2 were fit with a model for two set of binding site. The net enthalpy change for RRE-IIB stem loop interaction with Rev and RSG-1.2 were determined by subtraction of the heat of dilution.

RRE-IIB RNA [2] = test: Temperature dependent UV melting of RRE-IIB with peptides; type: binding, HIV-1; settings: pH 7.5
Protocol: Temperature dependent UV melting experiments were carried out using a Cary 100 (Varian) Spectrophotometer equipped with thermoelectrically controlled cell holder. A quartz cell of 1cm path length was used for all absorbance studies. Temperature dependent absorption spectra were obtained at 260 nm with rate of 0.5°C/min. increase in temperature, from 40 to 95°C. In these experiments the concentration of RNA was kept 1 µM and peptide concentration was increased from 0–3 µM. The buffer solution contained 10 mM sodium cacodylate buffer, 0.1 mM EDTA and 50 mM NaCl at pH 7.5. For each optically detected transition, the melting temperature (Tm) was determined using previously described methods.

RRE-IIB RNA [3] = test: CD spectroscopy of RRE-IIB with peptides; type: binding, HIV-1; settings: 5 µM RNA, pH 7.5, 25°C
Protocol: Circular dichroism (CD) spectra were recorded on a Jasco spectropolarimeter (model J815, Japan) equipped with a thermoelectrically controlled cell holder. The cuvette used for acquiring spectra was of 1 cm in path length. CD spectra were recorded from 350 nm to 200 nm; with accumulation of 3 and averaged at 25°C. The buffer solution contained 10 mM sodium cacodylate buffer, 0.1 mM EDTA and 50 mM NaCl at pH 7.5. In a titration experiment RNA concentration was fixed at 5 µM and the peptides concentration varied from 0–25 µM.

2-AP labeled RRE-IIB RNA = test: Fluorescence titration of 2-AP labeled RRE-IIB with peptides; type: binding, HIV-1; settings: pH 7.5, 25°C
Protocol: as §1
Steady state fluorescence spectra were collected using Xe 900 lamp of Edinburgh instruments Spectrofluorometer equipped with thermoelectrically controlled cell holders. The excitation of the sample was done at 320 nm wavelength and fluorescence spectra were collected from 340 nm to 450 nm. The excitation as well as emission slit width were kept at 3 nm. A quartz cell of 1 cm path length, transparent from four sides, was used. All the experiments were conducted at 25°C. RNA concentration was fixed at 0.1 µM and the peptide concentration was varied from 0–0.3 µM. The buffer solution contained 10 mM sodium cacodylate buffer, 0.1 mM EDTA and 50 mM NaCl at pH 7.5 and 25°C. The changes in the fluorescence intensity at 370 nm were monitored as a function of increase in peptide concentration. For data analysis, the observed fluorescence intensity was considered as the sum of the weighted contributions from a peptide bound and an unbound RNA form. [drawing 1] (1)
Where F corresponds to the observed fluorescence intensity at each titrant concentration, F0 and Fb are the respective fluorescence intensities of initial and final states of titration, α is the mole fractions of RNA in bound form. Assuming 1∶1 stoichiometry for the interaction, it can be shown that: [drawing 2] (2)
Where Ka is the association constant, [R0] is the total RNA concentration and [Lt] is the added peptide concentration. From Equations (1) and (2), it can be shown that: [drawing 3] (3)
Where ΔF = F – F0 and ΔFmax = Fmax – F0
The free energy of binding was calculated from the standard relation ΔG = -RTlnKa where R is the universal gas constant and T is the absolute temperature in Kelvin.
Fluorescence spectroscopy is a useful tool for determining binding constants of two interacting partners. We employed this tool for determining binding affinity of Rev and RSG-1.2 with the RRE-IIB RNA stem loop structure. In order to carry out fluorescence titration, RRE-IIB RNA was fluorescently labeled by incorporating 2-Aminopurine (2-AP) at position U72. […] All the fluorescence titrations were performed using 10 mM sodium cacodylate buffer containing 0.1 mM EDTA and 50 mM NaCl at pH 7.5 and at 25°C. […] Normalized change in fluorescence intensity at 370 nm was plotted against molar concentration of peptide. […]

RRE-IIB RNA [4] = test: Temperature dependent ITC (heat capacity change); type: binding, HIV-1; settings: ITC at 10, 20, 25 and 35°C, pH 7.5
Protocol: as §2
Heat capacity changes (ΔCp), that accompany the peptide binding to RNA can be determined by performing temperature dependent ITC experiments under same buffer conditions. […]

| Sequence | N1 (RRE-IIB RNA [1]; pH 7.5, 25°C) | N2 (RRE-IIB RNA [1]; pH 7.5, 25°C) | ΔH1 (binding enthalpy ΔH) (RRE-IIB RNA [1]; ITC, 25°C) | Ka1 (RRE-IIB RNA [1]; ITC, pH 7.5, 25°C) [M^−1 × 10^7] | Ka2 (RRE-IIB RNA [1]; ITC, pH 7.5, 25°C) [M^−1 × 10^5] | TΔS2 (RRE-IIB RNA [1]; ITC, pH 7.5, 25°C) [kcal/mol] | ΔH2 (RRE-IIB RNA [1]; ITC, pH 7.5, 25°C) [kcal/mol] | TΔS1 (RRE-IIB RNA [1]; pH 7.5, 25°C) [kcal/mol] | further results |
| --- | --- | --- | --- | --- | --- | --- | --- | --- | --- |
| DRRRRGSRPSGAERKRRRAAAA [R15K] | 1.6 | 1.6 | -8.7 ± 0.1 kcal/mol | 2.4±0.7 | 7.0±0.2 | 5.5 ± 0.1 | -2.4 ± 0.3 | 1.3 ± 0.2 | – |
| DRRRRGSRPSGAERRDRRAAAA [R15D] | 1.5 | 1.5 | -3.9 ± 0.1 kcal/mol | 2.9±0.4 | 14.2±0.2 | 7.3 ± 0.4 | -1.0 ± 0.1 | 6.2 ± 0.3 | – |
| DTRQARRNRRRRWRERQRAAAAR [Rev, minimal arginine rich Rev peptide of HIV-1 ([…])] | – | – | ≈ 0 kcal/mol and 0 kcal/mol | – | – | – | – | – | ΔTm (increase in Tm of RRE-IIB; Tm of RNA alone 67.3°C) (RRE-IIB RNA [2]; peptide to RNA molar ratio 1∶1, 1 µM RNA, 260 nm, 0.5°C/min, 10 mM sodium cacodylate, 50 mM NaCl, 0.1 mM EDTA): 1 °C; change in Tm at higher peptide ratios (RRE-IIB RNA [2]; ratios above 1∶1 (2∶1 and 3∶1), 1 µM RNA): negligible changes were observed; CD signal of RRE-IIB at 240 nm and 210 nm (RRE-IIB RNA [3]; peptide 0–25 µM (up to 5∶1), 10 mM sodium cacodylate, 50 mM NaCl, 0.1 mM EDTA): became more negative at 240 nm and 210 nm; CD signal of RRE-IIB at 265 nm (RRE-IIB RNA [3]; up to 5∶1 peptide): no significant change was observed at 265 nm; change in fluorescence intensity of 2-AP RRE-IIB (2-AP labeled RRE-IIB RNA; 0.1 µM RNA, 370 nm): fluorescence intensity increased upon addition of peptide; association constant Ka (2-AP labeled RRE-IIB RNA; 2-AP at U72, 0.1 µM RNA, 370 nm, 10 mM sodium cacodylate, 0.1 mM EDTA, 50 mM NaCl, fit with equation 3 (1∶1)): 3.1±0.4×10^7 M^−1; Ka1 (2-AP labeled RRE-IIB RNA; fluorescence binding studies (footnote b), 2-AP at U72, 0.1 µM RNA, peptide 0–0.3 µM, ex 320 nm/em 370 nm, 10 mM sodium cacodylate, 0.1 mM EDTA, 50 mM NaCl, 1∶1 fit): 3.1±0.4 ^b M^−1 × 10^7; ΔG (Gibb's free energy of binding) (2-AP labeled RRE-IIB RNA; ΔG = -RTlnKa, fluorescence Ka): -10.2 ± 0.1 kcal/mol; heat changes / enthalpy of binding (in words) (RRE-IIB RNA [1]; ITC, 25°C, pH 7.5): small; also recorded: almost zero enthalpy of interaction; also recorded: negligible enthalpy; TΔS1 (TΔS) (RRE-IIB RNA [1]; calculated by ΔG = ΔH − TΔS from fluorescence Ka and ITC ΔH (footnote c), pH 7.5, 25°C): 10.2±0.2 kcal/mol and 10.2±0.2 ^c kcal/mol; TΔS (RRE-IIB RNA [1]; calculated by ΔG = ΔH − TΔS, 25°C, pH 7.5): 10.2 ± 0.2 kcal/mol; thermodynamic driving force (RRE-IIB RNA [1]; from ΔH and TΔS, 25°C, pH 7.5): essentially entropically driven; also recorded: exclusively entropy driven; change in heat capacity (in words) (RRE-IIB RNA [4]): essentially no change in heat capacity; temperature dependence of binding enthalpy (RRE-IIB RNA [4]): does not show any change in enthalpy of binding; also recorded: no change in binding enthalpy |
